In paper PMC12234328, “A naphthalimide derivative exerts potent antiplatelet and antithrombotic activities without a bleeding tendency” (Frontiers in Pharmacology, 2025):
Read-outs that look alike come from different tables or passages of the source.

Key:
[1] = test system: thrombus formation in mesenteric venules; experiment: Fluorescein sodium-mediated thrombus formation in mesenteric microvessels of mice; format: in vivo; details: 20 mg/kg i.v., positive control, n = 6, mean ± SEM
Protocol: Male ICR mice (weighing 20–25 g and aged 5–6 weeks) were purchased from BioLasco (Taipei, Taiwan). The animal use protocol for this project was approved by the Affidavit of Approval of Animal Use Protocol–Taipei Medical University (LAC-2020–0074). All animal experiments were conducted in accordance with the Guide for the Care and Use of Laboratory Animals, Eighth Edition (2011).
The mice were anesthetized with an oxygen–air mixture containing 3% isoflurane at a gas flow rate of 1.5–2 L/min. A bolus dose (bolus volume: 20 μL) of compound 6 (0.3 mg/kg, 0.6 mg/kg, or 1.2 mg/kg), DMSO (solvent control; 1.1 g/kg), or aspirin (20 mg/kg; positive control) was intravenously administered through the tail vein before the administering sodium fluorescein (15 mg/kg). The small intestinal segments were placed on a transparent culture dish, and the mesenteric vessels were observed under a microscope. Venules (20–30 μm) were selected and irradiated with light (wavelength <520 nm) to induce endothelial damage, causing thrombus formation and subsequent vessel occlusion. The time required to occlude a microvessel was recorded ([Lin et al., 2013]). A formula for dose translation based on the […] was used to calculate the appropriate dose for use in the mice ([Reagan-Shaw et al., 2008]). [Reagan-Shaw et al. (2008)] reported that the animal dose should not be extrapolated to a human equivalent dose (HED) by a simple conversion based on body weight. […] The formula for dose translation based on BSA is as follows: HED (mg/kg) = Animal dose (mg/kg) multiply by Animal Km/Human Km. Mouse Km is 3 and Human Km is 37.
FIGURE 3 Effects of compound 6 on thrombosis and hemostasis in mice. Mice were treated with compound 6 (0.3, 0.6, or 1.2 mg/kg), DMSO (solvent control), or aspirin (20 mg/kg; positive control) via intravenous route for 10 min. (A) The microthrombus formation (arrows) in mesenteric venules. Scale bar = 30 μm. […] Each point on the plot indicates a mouse (n = 6). Data (A,B) are presented as means ± SEM (n = 6). *p < 0.05 and ***p < 0.001 compared with the DMSO group.

[2] = target: T1, recombinant human GPVI (Homo sapiens, UniProt Q9HCN6); experiment: Surface plasmon resonance binding assay (OpenSPR); details: his-tagged recombinant GPVI on NTA chip, compound at 0.1 and 1 μM; read-out: KD (equilibrium dissociation constant)
T1 sequence (Q9HCN6 21-267 limits assumed): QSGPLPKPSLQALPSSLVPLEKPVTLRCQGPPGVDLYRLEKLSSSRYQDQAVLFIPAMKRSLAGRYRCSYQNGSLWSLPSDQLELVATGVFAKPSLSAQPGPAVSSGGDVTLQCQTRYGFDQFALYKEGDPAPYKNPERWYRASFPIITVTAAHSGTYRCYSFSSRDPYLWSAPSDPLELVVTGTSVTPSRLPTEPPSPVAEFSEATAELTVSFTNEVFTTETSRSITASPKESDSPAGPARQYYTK
Protocol: Surface plasmon resonance (SPR) analysis was performed using an OpenSPR instrument (Nicoya, Kitchener, Canada). A nitrilotriacetic acid (NTA) sensor chip was installed in the OpenSPR instrument. Running buffer (phosphate-buffered saline) was pumped at the maximum flow rate, and 80% isopropanol was injected to remove any bubbles. Subsequently, 200 μL of a 200 mM imidazole solution was injected to prime the sensor surface. After rinsing the chip with running buffer, 200 μL of a 40 mM NiCl2 solution was used to activate the NTA chip. After 5 min of interaction time, his-tagged recombinant GPVI proteins were bound to the NTA chip by perfusing the GPVI protein solution at a flow rate of 20 μL/min. Solutions of compound 5 or compound 6 (0.1 and 1 μM) were then injected. The equilibrium dissociation constant (KD) was determined using the OpenSPR system (Nicoya).
An SPR binding assay was performed. First, recombinant human GPVI was coated on the NTA sensor chip. Solutions of compound 5 and compound 6 (0.1 and 1 μM) were then perfused on the chip, and the KD was determined using the OpenSPR system (Nicoya Lifesciences).
FIGURE 7 Direct binding of compound 6 on GPVI. […] Equilibrium dissociation constant (KD) were determined using the OpenSPR system. […]

[3] = test system: human platelet suspensions stimulated with collagen; set-up: method as in Shih et al., 2021; details: human platelets; ref Shih et al., 2021; read-out: IC50, collagen-induced platelet aggregation; cited from earlier work
[4] = test system: human platelet suspensions stimulated with thrombin; set-up: method as in Shih et al., 2021; details: high concentrations; ref Shih et al., 2021; cited from earlier work
[5] = test system: human platelet suspensions stimulated with U46619; set-up: method as in Shih et al., 2021; details: high concentrations; ref Shih et al., 2021; cited from earlier work
[6] = test system: thrombus formation in mesenteric venules; set-up: method as in Shih et al., 2021; details: mice, ref Shih et al., 2021, cited from earlier work
[7] = test system: tail bleeding (hemostasis); set-up: method as in Shih et al., 2021; details: ref Shih et al., 2021; cited from earlier work

Row | Kd [2] [µM] | SMILES | Occlusion time [1] [s] | IC50 [3] [µM] | Effect on thrombin-induced platelet aggregation [4] | Effect on U46619-induced platelet aggregation [5] | Thrombus formation ([6]; 1.2 mg/kg) | Thrombus formation ([6]; 2.3 mg/kg) | Bleeding tendency [7]
1 | – | CC(=O)Oc1ccccc1C(=O)O [aspirin, reference compound] | 492.2 ± 31.9 | – | – | – | – | – | –
2 | 0.3 | CN(C)CCN1C(=O)c2cccc3c(NCCNC(=O)c4ccccn4)ccc(c23)C1=O [compound 5] | – | 6.5 | can block | can block | not | inhibits thrombus formation | demonstrated a bleeding tendency
